Data taken from patent US4819645A, “Dermal substance collection method” (priority 1987, dated 1989).
Like-named read-outs stand apart in the source and are kept apart here.

Assays:
[1] = format: in vivo, Rhesus monkey; conditions: 14C-parathion intravenously; activated charcoal gel DSCD, skin pre-treated with Azone
Description: Extensive In vivo testing of the dermal substance collection device (DSCD) has been undertaken in rabbits (R, Rhesus monkeys (M) and humans (H). […]. Experimental conditions were varied in order to evaluate various binding reservoirs including activated charcoal dispersed in a saline/gel matrix, various DSCD embodiments which provide a liquid bridge including saline, immobilized by various gels such as agarose or polyvinyl alcohol as the gelling agent, various DSCD embodiments which provide persistent occlusive contact of the liquid bridge with the skin (single layer adhesive tape overlying the DSCD liquid bridge/binding reservoir complex vs multiple tape/foil layers enveloping a liquid bridge/binding reservoir complex vs multiple tape/foil layers enveloping a liquid bridge/binding reservoir complex which protrudes into the skin effecting positive pressure during emplacement), various preparatory procedures (shaving, clipping of hair, use of a chemical depilitant, cleansing of the skin with soap and isopropyl alcohol), and various skin penetration enhancing agents (Azone, DET, DMSO).
In a typical animal experiment, a Rhesus monkey is anesthetized with ketamine 10 mg/kg and the hair on the chest and abdomen is clipped prior to washing the underlying skin (with a mild soap or isopropyl alcohol). […]

[2] = Rhesus monkeys, maximum percentage of administered dose collected, liquid bridge diameter 9 mm
[3] = Collection of THC by DSCDs after oral THC, RIA after toluene/ethanol extraction; conditions: cancer patient, oral 10 mg THC, up to 48 hours, lower legs, 1 cm gel
[4] = Collection of cimetidine by DSCDs in a healthy volunteer; conditions: 5 mg/kg orally or intravenously, 24 hours, 25 mm liquid bridge, agarose gel with activated charcoal
[5] = parent compound and metabolites

Compound: CCOP(=S)(OCC)Oc1ccc([N+](=O)[O-])cc1 [14C-parathion]
- transdermal collection (in words) [1]: particularly satisfactory transdermal collection

Compound: CCOP(=S)(OCC)Oc1ccc([N+](=O)[O-])cc1 [PARATHION, parathion]
- EXTENT OF TRANSDERMAL MIGRATION [2, 5]: 0.7 % Dose × 10^4

Compound: CCCCCc1cc(O)c2c(c1)OC(C)(C)[C@@H]1CCC(C)=C[C@@H]21 [TETRAHYDROCANNABINOL]
- EXTENT OF TRANSDERMAL MIGRATION ([2]; parent compound only): 0.1 % Dose × 10^4
- amount of THC collected from DSCDs ([3]; agarose gel without activated charcoal): 224 ± 22 pg
- amount of THC collected from DSCDs ([3]; gel with activated charcoal): 601 ± 302 pg

Compound: CN/C(=N/CCSCc1nc[nH]c1C)NC#N [CIMETIDINE, cimetidine]
- EXTENT OF TRANSDERMAL MIGRATION ([2]; parent compound only): 8.3 % Dose × 10^4
- amount of cimetidine collected from DSCDs [4]: 62 to 461 ng

Compound: inulin
- EXTENT OF TRANSDERMAL MIGRATION [2, 5]: 0.5 % Dose × 10^4

Compound: CN1CCCC1c1cccnc1 (stereo not shown) [NICOTINE, nicotine]
- EXTENT OF TRANSDERMAL MIGRATION [2, 5]: 2.5 % Dose × 10^4

Compound: Cn1c(=O)c2[nH]cnc2n(C)c1=O [THEOPHYLLINE, theophylline]
- EXTENT OF TRANSDERMAL MIGRATION [2, 5]: 25 % Dose × 10^4
